Measured values reported in US10723699B2 (Hyundai Pharm Co., Ltd., priority 2015, dated 2020).
Entries after “also recorded” stand apart in the source; their conditions may differ. Read-outs that look alike come from different tables or passages of the source.

How the values were obtained:
[1] = tested on: diet-induced obesity (DIO) rat model; assay: Changes in weights in diet-induced obesity (DIO) rat model, 4-week administration; format: in vivo, Sprague Dawley (SD) rats; conditions: 5 mg/kg oral, 4 weeks
Method: To simultaneously evaluate both the weight-loss and hypoglycemic effects of the cyclohexene derivative according to the present invention, experiments were carried out, as follows.
Specifically, male Sprague Dawley (SD) rats (approximately 4 weeks old) in a diet-induced obesity model were fed with a high-fat diet (Lab. Diet Co.) for approximately 10 weeks to induce high-fat diet-induced obesity (DIO). The rats undergoing the high-fat diet were randomly selected, and divided into groups (n=8) for respective administrations. The compounds of Comparative Examples 3 and 4 and Examples 48 and 119 were administered to the divided DIO rats each group for 4 weeks.
The weights of the DIO rats were measured twice a week during a period of administration of 4 weeks to record a change in the weights. At the end of the 4-week period of administration, a hypoglycemic effect was evaluated using an oral glucose tolerance test (OGTT), as follows.

[2] = biological target: T1, G protein-coupled receptor 119 (GPR-119) (Mesocricetus auratus, UniProt A0A1U8CD06); assay: cAMP activity in HIT-T15 cells (cAMP dynamic kit, FRET); format: cell-based, hamster
T1 construct: hamster-derived β-cells containing G protein-coupled receptor 119 (GPR-119), HIT-T15 cells; host or cells: HIT-T15 (hamster pancreatic β-cells)
T1 sequence (A0A1U8CD06 1-334): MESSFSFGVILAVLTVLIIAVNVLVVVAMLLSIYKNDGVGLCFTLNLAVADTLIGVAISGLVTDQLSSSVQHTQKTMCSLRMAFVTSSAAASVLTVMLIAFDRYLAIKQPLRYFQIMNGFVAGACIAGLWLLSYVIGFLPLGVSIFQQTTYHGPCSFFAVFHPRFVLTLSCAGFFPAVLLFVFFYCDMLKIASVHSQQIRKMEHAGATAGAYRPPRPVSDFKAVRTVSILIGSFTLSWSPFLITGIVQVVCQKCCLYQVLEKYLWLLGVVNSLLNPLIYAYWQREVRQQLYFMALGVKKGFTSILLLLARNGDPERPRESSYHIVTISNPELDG
Method in brief: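 Hamster HIT-T15 cells (60,000/well) were treated next day with compound at six concentrations, 0.0032–10 μM, for 1 h at 37° C. Cells were then lysed and cAMP measured by competitive HTRF immunoassay (D2-cAMP, cryptate anti-cAMP). Activity was derived as the change in FRET signal relative to DMSO.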

[3] = 1 hour at 37° C., six concentrations 0.0032 to 10 μM, read-out: EC50

| SMILES | changes in weights of rats (weight-loss effect) [1] | EC50 [2, 3] | EC50 ([2]; Table 2, read-out: EC50 value) |
| --- | --- | --- | --- |
| CC(C)CC(N(C)C)C1(c2ccc(Cl)cc2)CCC1 (stereo not drawn) [Comparative Example 4, Sibutramine] | weight loss was observed for 2 weeks; also recorded: the weight rather increased after 2 weeks | – | – |
| CC(C)c1noc(N2CCC(COc3ccc(C4=CCC(C(=O)N5CCOCC5)CC4)c(F)c3)CC2)n1 (stereo not drawn) [Example 448, (4-(2-fluoro-4-((1-(3-isopropyl-1,2,4-oxadiazol-5-yl)piperidin-4-yl)methoxy)phenyl)cyclohex-3-enyl)(morpholino)methanone] | – | 25 nM | ≤ 50 nM |
| CC(C)c1noc(N2CCC(COc3ccc(C4=CCC(C(=O)N5CCSCC5)CC4)c(F)c3)CC2)n1 (stereo not drawn) [Example 449, (4-(2-fluoro-4-((1-(3-isopropyl-1,2,4-oxadiazol-5-yl)piperidin-4-yl)methoxy)phenyl)cyclohex-3-enyl)(thiomorpholino)methanone] | – | 33 nM | ≤ 50 nM |
| O=C(C1CC=C(c2ccc(OCC3CCN(C(=O)C4(C(F)(F)F)CCCC4)CC3)c(F)c2)CC1)N1CCOCC1 (stereo not drawn) [Example 450, (4-(3-fluoro-4-((1-(1-(trifluoromethyl)cyclopentanecarbonyl)piperidin-4-yl)methoxy)phenyl)cyclohex-3-enyl)(morpholino)methanone] | – | 27 nM | ≤ 50 nM |
| CC(C)=CC(=O)N1CCC(COc2ccc(C3=CCC(C(=O)N4CCOCC4)CC3)cc2F)CC1 (stereo not drawn) [Example 451, 1-(4-((2-fluoro-4-(4-(morpholine-4-carbonyl)cyclohex-1-enyl)phenoxy)methyl)piperidin-1-yl)-3-methylbut-2-en-1-one] | – | 89 nM | – |
| CCc1cnc(N2CCC(COc3ccc(C4=CCC(C(=O)N5CCC(C(F)(F)F)CC5)CC4)c(F)c3)CC2)nc1 (stereo not drawn) [Example 452, (4-(4-((1-(5-ethylpyrimidin-2-yl)piperidin-4-yl)methoxy)-2-fluorophenyl)cyclohex-3-enyl)(4-(trifluoromethyl)piperidin-1-yl)methanone] | – | 18 nM | ≤ 50 nM |
| CCc1cnc(N2CCC(COc3ccc(C4=CCC(C(=O)N5CCC(F)(F)CC5)CC4)c(F)c3)CC2)nc1 (stereo not drawn) [Example 453, (4,4-difluoropiperidin-1-yl)(4-(4-((1-(5-ethylpyrimidin-2-yl)piperidin-4-yl)methoxy)-2-fluorophenyl)cyclohex-3-enyl)methanone] | – | 12 nM | ≤ 50 nM |
| CCc1cnc(N2CCC(COc3ccc(C4=CCC(C(=O)N5CCC(F)(F)C5)CC4)c(F)c3)CC2)nc1 (stereo not drawn) [Example 454, (3,3-difluoropyrrolidin-1-yl)(4-(4-((1-(5-ethylpyrimidin-2-yl)piperidin-4-yl)methoxy)-2-fluorophenyl)cyclohex-3-enyl)methanone] | – | 15 nM | ≤ 50 nM |
| CCc1cnc(N2CCC(COc3ccc(C4=CCC(C(=O)N5CC(F)(F)C(F)(F)C5)CC4)c(F)c3)CC2)nc1 (stereo not drawn) [Example 455, (4-(4-((1-(5-ethylpyrimidin-2-yl)piperidin-4-yl)methoxy)-2-fluorophenyl)cyclohex-3-enyl)(3,3,4,4-tetrafluoropyrrolidin-1-yl)methanone] | – | 18 nM | ≤ 50 nM |
| CCc1cnc(N2CCC(COc3ccc(C4=CCC(C(=O)N5CCC(C(F)(F)F)CC5)CC4)cc3F)CC2)nc1 (stereo not drawn) [Example 456, (4-(4-((1-(5-ethylpyrimidin-2-yl)piperidin-4-yl)methoxy)-3-fluorophenyl)cyclohex-3-enyl)(4-(trifluoromethyl)piperidin-1-yl)methanone] | – | 18 nM | ≤ 50 nM |
| CCc1cnc(N2CCC(COc3ccc(C4=CCC(C(=O)N5CCC(F)(F)CC5)CC4)cc3F)CC2)nc1 (stereo not drawn) [Example 457, (4,4-difluoropiperidin-1-yl)(4-(4-((1-(5-ethylpyrimidin-2-yl)piperidin-4-yl)methoxy)-3-fluorophenyl)cyclohex-3-enyl)methanone] | – | 9.8 nM | ≤ 50 nM |
| CCc1cnc(N2CCC(COc3ccc(C4=CCC(C(=O)N5CCC(F)(F)C5)CC4)cc3F)CC2)nc1 (stereo not drawn) [Example 459, (3,3-difluoropyrrolidin-1-yl)(4-(4-((1-(5-ethylpyrimidin-2-yl)piperidin-4-yl)methoxy)-3-fluorophenyl)cyclohex-3-enyl)methanone] | – | 36 nM | ≤ 50 nM |
| CCc1cnc(N2CCC(COc3ccc(C4=CCC(C(=O)N5CC(F)(F)C(F)(F)C5)CC4)cc3F)CC2)nc1 (stereo not drawn) [Example 460, (4-(4-((1-(5-ethylpyrimidin-2-yl)piperidin-4-yl)methoxy)-3-fluorophenyl)cyclohex-3-enyl)(3,3,4,4-tetrafluoropyrrolidin-1-yl)methanone] | – | 12 nM | ≤ 50 nM |
